Experimental data taken from ChEMBL document CHEMBL1201862, “PubChem BioAssay data set” (2004).
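Method: 48-hour compound exposure of cells in 96-well plates, five concentrations, linear interpolation of endpoints. GI50: concentration for 50% inhibition of growth.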 Active and inactive are the calls of the source. Cut-off read from the data, not from the text of the source: active = GI50 up to about 1.1 µM and inactive = higher.

Key:
Experiment in all cases: DTP human tumour cell line panel, 48 h
A549 = test system: A549
NCI-H226 = test system: NCI-H226
SW-620 = test system: SW-620
NCI-H522 = test system: NCI-H522
NCI/ADR-RES = test system: NCI/ADR-RES
NCI-H460 = test system: NCI-H460
RXF 393 = test system: RXF 393
UACC-257 = test system: UACC-257
SN12C = test system: SN12C
SF-268 = test system: SF-268
OVCAR-3 = test system: OVCAR-3
786-0 = test system: 786-0
MDA-MB-231 = test system: MDA-MB-231
SK-MEL-28 = test system: SK-MEL-28
SNB-19 = test system: SNB-19
ACHN = test system: ACHN
COLO 205 = test system: COLO 205
LOX IMVI = test system: LOX IMVI
UO-31 = test system: UO-31
OVCAR-5 = test system: OVCAR-5
SK-MEL-2 = test system: SK-MEL-2
HCT-116 = test system: HCT-116
U-251 = test system: U-251
NCI-H23 = test system: NCI-H23
MDA-MB-435 = test system: MDA-MB-435
HT-29 = test system: HT-29
MDA-N = test system: MDA-N
Malme-3M = test system: Malme-3M
MCF7 = test system: MCF7
DU-145 = test system: DU-145
EKVX = test system: EKVX
TK-10 = test system: TK-10
HOP-62 = test system: HOP-62
M14 = test system: M14
HCT-15 = test system: HCT-15
PC-3 = test system: PC-3
RPMI-8226 = test system: RPMI-8226
SF-539 = test system: SF-539
BT-549 = test system: BT-549
SR = test system: SR
SF-295 = test system: SF-295
OVCAR-8 = test system: OVCAR-8
T47D = test system: T47D
CAKI-1 = test system: CAKI-1
HL-60 = test system: HL-60
KM12 = test system: KM12
OVCAR-4 = test system: OVCAR-4
Hs-578T = test system: Hs-578T
MOLT-4 = test system: MOLT-4
CCRF-CEM = test system: CCRF-CEM
A498 = test system: A498
SK-MEL-5 = test system: SK-MEL-5
SNB-75 = test system: SNB-75
K562 = test system: K562
UACC-62 = test system: UACC-62
IGROV-1 = test system: IGROV-1
SK-OV-3 = test system: SK-OV-3
HOP-92 = test system: HOP-92
HCC 2998 = test system: HCC 2998

CN(c1ccccc1)S(=O)(=O)c1ccc([N+](=O)[O-])cc1
GI50 (A549): > 100 µM (inactive) | GI50 (NCI-H226): > 100 µM (inactive) | GI50 (SW-620): > 100 µM (inactive) | GI50 (NCI-H522): > 100 µM (inactive) | GI50 (NCI/ADR-RES): 95.1 µM (inactive) | GI50 (NCI-H460): > 100 µM (inactive) | GI50 (RXF 393): > 100 µM (inactive) | GI50 (UACC-257): 92.5 µM (inactive) | GI50 (SN12C): > 100 µM (inactive) | GI50 (SF-268): > 100 µM (inactive) | GI50 (OVCAR-3): > 100 µM (inactive) | GI50 (786-0): > 100 µM (inactive) | GI50 (MDA-MB-231): 79.3 µM (inactive) | GI50 (SK-MEL-28): > 100 µM (inactive) | GI50 (SNB-19): > 100 µM (inactive) | GI50 (ACHN): > 100 µM (inactive) | GI50 (COLO 205): > 100 µM (inactive) | GI50 (LOX IMVI): > 100 µM (inactive) | GI50 (UO-31): > 100 µM (inactive) | GI50 (OVCAR-5): > 100 µM (inactive) | GI50 (SK-MEL-2): > 100 µM (inactive) | GI50 (HCT-116): > 100 µM (inactive) | GI50 (U-251): > 100 µM (inactive) | GI50 (NCI-H23): 83.4 µM (inactive) | GI50 (MDA-MB-435): > 100 µM (inactive) | GI50 (HT-29): 69.5 µM (inactive) | GI50 (MDA-N): > 100 µM (inactive) | GI50 (Malme-3M): 40.6 µM (inactive) | GI50 (MCF7): > 100 µM (inactive) | GI50 (DU-145): > 100 µM (inactive) | GI50 (EKVX): > 100 µM (inactive) | GI50 (TK-10): > 100 µM (inactive) | GI50 (HOP-62): > 100 µM (inactive) | GI50 (M14): 55.7 µM (inactive) | GI50 (HCT-15): > 100 µM | GI50 (PC-3): 89.5 µM (inactive) | GI50 (RPMI-8226): 61.5 µM (inactive) | GI50 (SF-539): > 100 µM (inactive) | GI50 (BT-549): > 100 µM (inactive) | GI50 (SR): > 100 µM (inactive) | GI50 (SF-295): > 100 µM (inactive) | GI50 (OVCAR-8): > 100 µM (inactive) | GI50 (T47D): > 100 µM (inactive) | GI50 (CAKI-1): > 100 µM (inactive) | GI50 (HL-60): 57 µM (inactive) | GI50 (KM12): 46.5 µM (inactive) | GI50 (OVCAR-4): > 100 µM (inactive)

C=C1CCN2CC[C@@H](OC(=O)/C(C)=C\C)[C@@H]12
GI50 (A549): > 100 µM (inactive) | GI50 (NCI-H226): > 100 µM (inactive) | GI50 (SW-620): > 100 µM (inactive) | GI50 (NCI-H522): > 100 µM (inactive) | GI50 (Hs-578T): > 100 µM (inactive) | GI50 (NCI/ADR-RES): > 100 µM (inactive) | GI50 (MOLT-4): > 100 µM (inactive) | GI50 (NCI-H460): > 100 µM (inactive) | GI50 (RXF 393): > 100 µM (inactive) | GI50 (UACC-257): > 100 µM (inactive) | GI50 (SN12C): > 100 µM (inactive) | GI50 (CCRF-CEM): > 100 µM (inactive) | GI50 (A498): > 100 µM (inactive) | GI50 (SK-MEL-5): > 100 µM (inactive) | GI50 (SF-268): > 100 µM (inactive) | GI50 (OVCAR-3): > 100 µM (inactive) | GI50 (786-0): > 100 µM (inactive) | GI50 (MDA-MB-231): > 100 µM (inactive) | GI50 (SK-MEL-28): > 100 µM (inactive) | GI50 (SNB-75): > 100 µM (inactive) | GI50 (SNB-19): > 100 µM (inactive) | GI50 (ACHN): > 100 µM (inactive) | GI50 (COLO 205): > 100 µM (inactive) | GI50 (LOX IMVI): > 100 µM (inactive) | GI50 (UO-31): > 100 µM (inactive) | GI50 (OVCAR-5): > 100 µM (inactive) | GI50 (SK-MEL-2): > 100 µM (inactive) | GI50 (K562): > 100 µM (inactive) | GI50 (HCT-116): > 100 µM (inactive) | GI50 (U-251): > 100 µM (inactive) | GI50 (NCI-H23): > 100 µM (inactive) | GI50 (MDA-MB-435): > 100 µM (inactive) | GI50 (HT-29): 66.2 µM (inactive) | GI50 (MDA-N): > 100 µM (inactive) | GI50 (Malme-3M): > 100 µM (inactive) | GI50 (MCF7): > 100 µM (inactive) | GI50 (DU-145): > 100 µM (inactive) | GI50 (UACC-62): > 100 µM (inactive) | GI50 (EKVX): > 100 µM (inactive) | GI50 (TK-10): > 100 µM (inactive) | GI50 (HOP-62): > 100 µM (inactive) | GI50 (IGROV-1): > 100 µM (inactive) | GI50 (SK-OV-3): > 100 µM (inactive) | GI50 (M14): > 100 µM (inactive) | GI50 (HCT-15): > 100 µM | GI50 (PC-3): > 100 µM (inactive) | GI50 (RPMI-8226): > 100 µM (inactive) | GI50 (SF-539): > 100 µM (inactive) | GI50 (SR): > 100 µM (inactive) | GI50 (SF-295): > 100 µM (inactive) | GI50 (HOP-92): > 100 µM (inactive) | GI50 (HCC 2998): > 100 µM (inactive) | GI50 (OVCAR-8): > 100 µM (inactive) | GI50 (T47D): > 100 µM (inactive) | GI50 (CAKI-1): > 100 µM (inactive) | GI50 (KM12): > 100 µM (inactive) | GI50 (OVCAR-4): > 100 µM (inactive)
